Patent EP0110746A1, “Derivatives of 3-amino-1-phenoxy-2-propanol, their therapeutical use and process for their preparation” (LABORATOIRE L. LAFON Société anonyme dite:, priority 1982, dated 1984)

Columns and labels:
in vivo = assay: in vivo; design: species or system souris; conditions: mouse, ip
Method: (§1) On a résumé ci-après une partie des essais qui ont été entrepris avec le CRL 41 058 (produit de l'exemple 1). Dans ces essais et sauf indications contraires, le CRL 41 058, en suspension dans une solution aqueuse de gomme arabique pour des concentrations supérieures ou égales à 3 g/1, et en solution dans de l'eau distillée pour des concentrations inférieures à 3g/l, a été administré par voie intrapéritonéale sous un volume de 20 ml/kg chez la souris mâle et de 5 ml/kg chez le rat mâle.
(§2) Chez la souris màle par voie I.P., la DL-0 (dose maximale non mortelle) est supérieure à 64 mg/kg, et la DL-30 (dose à laquelle 30% des animaux meurent) est de l'ordre de 128 mg/kg. Le CRL 41 058 est moins toxique que le chlorhydrate de 1-(3,5-diméthoxy- phénoxy)-3-tertiobutylamino-2-propanol qui a une DL-50 par voie I.P. chez la souris mâle de l'ordre de 73 mg/kg.

souris mâle [1] = assay: in vivo; conditions: mouse, ip
Method: as §1, §2

souris mâle [2] = assay: Global behaviour and reactivities, mouse; format: in vivo
Method: as §1

[3] = test system: rats normotendus anesthésiés au pentobarbital; assay: Anaesthetised rat: duration of the β-blocking action; format: in vivo
Method: Des rats normotendus sont anesthésiés au pentobarbital (75 mg/kg I.P.) et atropinés (1 mg/kg I.P.) On mesure leur pression artérielle carotidienne, leur fréquence cardiaque par intégration de la pression artérielle. Une veine jugulaire est cathétérisée pour les injections. Si besoin est, l'anesthésie est entretenue par injection sous-cutanée de pentobarbital.
5 rats reçoivent 1 mg/kg de CRL 41 058 par voie I.V. 0n observe que : • - la pression artérielle, diastolique n'est pas modifiée, elle reste voisine de 91 mm Hg; et • - la fréquence cardiaque passe, en 5 min, de 345 à 290 bat/min (soit -16%), la bradycardie maximale est obtenue au temps 20 min : 280 bat/min (soit -19%). Après 90 min, la fréquence cardiaque est à 307 bat/min (soit -11%).

rat mâle = assay: Global behaviour and reactivities, rat; format: in vivo
Method: as §1

[4] = test system: oreillettes droites isolées de cobaye; assay: Isolated guinea pig right atria: pA2 against chronotropic effect of isoprenaline, own inotropic and chronotropic action
Source text: Sur ces oreillettes, on évalue aussi l'action inotrope et chronotrope propre du CRL 41 058; aucune moyenne n'a pu être faite, les concentrations et l'ordre d'administration des concentrations étant variables. […] Par contre, si,par exemple, la concentration de 10^-6 M est administrée après des concentrations inférieures qui ont été stimulantes, cette concentration de 10^-6 M est ino et chrono (ce phénomène pourrait laisser supposer une libération de catécholamines).

[5] = test system: tachycardie induite par isoprénaline; assay: Anaesthetised rat: determination of the effective β-blocking dose; format: in vivo; conditions: iv, I.V., 0,03 à 0,3 µg/kg I.V. isoprénaline, read-out: dose qui bloque la tachycardie induite par isoprénaline
Method: Des rats normotendus sont anesthésiés au pentobarbital (75 mg/kg I.P.) et atropinés (1 mg/kg I.P.) On mesure leur pression artérielle carotidienne, leur fréquence cardiaque par intégration de la pression artérielle. Une veine jugulaire […] pour les injections. Si besoin est, l'anesthésie est entretenue par injection sous-cutanée de pentobarbital. 3 rats reçoivent le CRL 41 058 par voie intraveineuse, aux doses successives de 0,3 mg/kg, 1 mg/kg,3 mg/kg, 10 mg/kg et, éventuellement, 30 mg/kg. On détermine la dose qui bloque […] induite par 0,03 à 0,3μg/kg […] (dose nécessaire pour obtenir une augmentation de fréquence cardiaque de 30 à 50 bat/min). On trouve que la dose en question est de 1 mg/kg I.V.

homme = assay: Clinical trials in man; format: in vivo; conditions: daily dose 40 à 50 mg in 2 à 3 intakes, 2 à 6 semaines
[6] = test system: chiens anesthésiés au nembutal; assay: Cardiovascular properties, anaesthetised dog, intraduodenal route; format: in vivo, chien
Method: Trois chiens (poids moyen : 13,6 kg) anesthésiés au nembutal reçoivent le CRL 41 058 par voie intraduodénale aux doses successives de 0,5 mg/kg, 1 mg/kg, 2,5 mg/kg, 5 mg/kg et 10 mg/kg. On mesure la pression artérielle (il est rappelé que 1 mm Hg correspond à environ 1,333 x 102 Pa), la fréquence cardiaque, le débit artériel fémoral, le débit artériel vertébral, la température rectale, et on note la coloration de la peau et la coloration de la bile recueillie par cathétérisation du cholédoque après ligature du cystique.

Solubility in water = format: physicochemical; conditions: read-out: soluble dans l'eau
Method: La base libre ainsi obtenue est traitée au reflux dans de l'éthanol anhydre par de l'éthanol chlorhydrique. Il se forme un précipité que l'on isole pour recueillir 36,3 g (rendement = 69,75%) de CRL 41 058 qui se présente sous la forme d'une poudre légèrement beige soluble à 12,5 g/1 dans l'eau. Finst (Köfler) ^= 216°C.

[7] = test system: rats génétiquement hypertendus; assay: Awake genetically hypertensive rat: arterial pressure and heart rate; format: in vivo; conditions: 20 mg/kg V.B.
Method: 6 rats génétiquement hypertendus, à cathéter artériel fémoral implanté, reçoivent le CRL 41 058 à la dose de 20 mg/kg V.B.

For `COc1cc(OC)cc(OCC(O)CNC(C)(C)C)c1` (stereo not shown) [chlorhydratede 1-(3,5-diméthoxy-phénoxy)-3-tertiobutylamino-2-propanol, reference compound], the LD50 (in vivo) was ~73 mg/kg.
In the case of `COc1cc(OC)c(Cl)c(OCC(O)CNC(C)(C)C)c1` (stereo not shown) [CRL 41 058, chlorhydratede 1-(2-chloro-3,5-diméthoxyphénoxy)-3-tertiobutylamino-2-propanol], the “DL-0 (dose maximale non mortelle)” value (souris mâle [1]) is reported as > 64 mg/kg, the “DL-30 (dose à laquelle 30% des animaux meurent)” value (souris mâle [1]) is reported as ~128 mg/kg and the symptômes (souris mâle [2]; I.P., 0,5 mg/kg, 2 mg/kg et 8 mg/kg) is reported as “ne provoquent pas de symptômes nets”. The symptômes (souris mâle [2]; I.P., 32 mg/kg) was “sédation inconstante (chez 2 animaux sur 3) et fugace (30 min), une dyspnée (chez 2 animaux sur 3) pendant 15 à 30 min”, the “tachycardie à l'isoprénaline” value ([3]; 0,03 µg/kg I.V. isoprénaline after 1 mg/kg I.V., 5 min) was “totalement inhibée” and the “tachycardie à l'isoprénaline, part de sa valeur reprise” value ([3]; 0,03 µg/kg I.V. isoprénaline after 1 mg/kg I.V., 20 min) was 50%. The “tachycardie à l'isoprénaline, part de sa valeur restaurée” value ([3]; 0,03 µg/kg I.V. isoprénaline after 1 mg/kg I.V., 60 min) was 92%, the “variation de pression artérielle à l'isoprénaline par rapport à la variation témoin” value ([3]; 0,03 µg/kg I.V. isoprénaline after 1 mg/kg I.V., at 5 min and during 2 h) was -69% and the “variation de pression artérielle à l'isoprénaline” value ([3]; 0,03 µg/kg I.V. isoprénaline after 1 mg/kg I.V., at 5 min and during 2 h, control -26 mm Hg) was “+8 mm Hg”. For the same molecule, the “fréquence cardiaque, variation” value ([3]; 1 mg/kg I.V., 5 min) was -16%, the fréquence cardiaque ([3]; 1 mg/kg I.V., 5 min, baseline 345) was 290 bat/min and the “fréquence cardiaque (bradycardie maximale)” value ([3]; 1 mg/kg I.V., 20 min) was 280 bat/min. For the same molecule, the “fréquence cardiaque, variation (bradycardie maximale)” value ([3]; 1 mg/kg I.V., 20 min) was -19%, the fréquence cardiaque ([3]; 1 mg/kg I.V., 90 min) was 307 bat/min and the “fréquence cardiaque, variation” value ([3]; 1 mg/kg I.V., 90 min) was -11%. For the same molecule, the “pression artérielle diastolique” value ([3]; 1 mg/kg I.V., not modified) was ~91 mm Hg, the symptômes (rat mâle; I.P., 0,25 mg/kg, 1 mg/kg et 4 mg/kg) was “ne provoquent pas de symptômes nets” and the symptômes (rat mâle; I.P., 16 mg/kg) was “sédation fugace (30 min) et déprime la respiration (chez 2 animaux sur 3) pendant 30 min”. The Kb ([4]; Cavia porcellus, 0.25 h, 15 min de contact, mean of 5 atria, read-out: pA2 vis-à-vis de l'effet chronotrope de l'isoprénaline (converted)) was 6.17 nM, the “action inotrope et chronotrope propre” value ([4]; maximum at first concentration used, 3 x 10^-8 à 10^-6 M) was “effet ino + et chrono+” and the minimal effective dose [5] was 1 mg/kg. For the same molecule, the “action β-bloquante chez l'homme” value (homme) was “confirmé chez l'homme l'intérêt de l'action β-bloquante”, the “effet tachycardisant de l'isoprénaline” value ([6]; 100 µg/kg isoprénaline, two dogs, after cumulative dose 19 mg/kg) was “inférieur à l'effet tachycardisant de 0,3µg/kg d'isoprénaline témoin” and the minimal effective dose ([6]; Canis lupus familiaris, intraduodenal, voie intraduodénale, successive doses 0,5 to 10 mg/kg, read-out: dose bradycardisante) was ≥ 0.5 mg/kg. The “pression artérielle systolique” value ([6]; after 1 µg/kg noradrénaline, control 280 mm Hg) was 221 mm Hg, the “pression artérielle diastolique” value ([6]; after 3 µg/kg isoprénaline, cumulative dose 19 mg/kg, control 48 mm Hg) was 119 mm Hg and the fréquence cardiaque ([6]; after 3 µg/kg isoprénaline, cumulative dose 19 mg/kg, control 245 bat/min) was 110 bat/min. For the same molecule, the “coloration de la peau et celle de la bile” value ([6]; voie intraduodénale) was “ne sont pas modifiées”, the “débit artériel vertébral” value ([6]; voie intraduodénale) was “n'est pas vasodilatateur vertébral” and the “températures rectale et cutanée” value ([6]; voie intraduodénale) was “varient peu”. The “action sur la pression artérielle” value ([6]; voie intraduodénale, from 0,5 mg/kg) was “sans aucune action nette”, the “augmentation du débit fémoral” value ([6]; voie intraduodénale, flow decreases in the two other dogs) was “présente seulement chez un chien sur trois” and the solubility (Solubility in water) was 12.5 mg/mL. For the same molecule, the fréquence cardiaque ([7]; 5 min, baseline 382) was 322 bat/min, the “fréquence cardiaque (bradycardie maximale)” value ([7]; 2 h) was 305 bat/min and the “pression artérielle” value ([7]; 6 h, baseline 191) was 167 mm Hg. For the same molecule, the fréquence cardiaque ([7]; 7 h) was 322 bat/min, the fréquence cardiaque ([7]; 24 h) was 330 bat/min and the “pression artérielle” value ([7]; 24 h) was “a repris sa valeur témoin”.
